# Reference: patent publication US20250032446A1, “METHODS AND COMPOSITIONS FOR THE BIOSYNTHESIS AND USE OF DEMETHYLATED POLYMETHOXY FLAVONES” (RUTGERS, THE STATE UNIVERSITY OF NEW JERSEY, priority 2021, published 2025)
# “Also recorded” adds a separate entry of the source. Like-named read-outs stand apart in the source and are kept apart here.
# Assays:
# [1] = MTT assay, pre-confluent cell proliferation; format: cell-based, mouse; conditions: mouse, pre-confluent 3T3-L1 preadipocytes
# Procedure: (§1) 3T3-L1 cells were purchased from American Type Culture Collection (ATCC, Rockville, MD) and maintained in MEME media with 10% FBS 1% penicillin/streptomycin (GIBCO, Paisley, UK) in a humidified atmosphere of 5% CO2 in air at 37° C. Cells were passaged by using 0.05% (vol) Trypsin and replated in 55-cm^2 dishes at a density of 1*10^4 cells/cm^2 until confluence.
# (§2) For treatment, nobiletin and the mixture of 6- and 7-OH-nobiletin (M67N) in a 1:49 ratio were first dissolved in dimethyl sulphoxide (DMSO) to make stock solution (5 mM to 100 mM). (FIG. 20) The stock solution was then diluted by 1000 times with culture medium to designated concentrations. Cells cultured in full DMEM was set as negative control while cells treated with DM with 0.1% DMSO as positive control.
# (§3) 3T3-L1 cells were seeded on 96-well plate at density of 1×10^4 cells/well and incubated overnight for cell attachment. For measuring pre-confluent cell proliferation, cells were cultivated for 36 hours and full MEME with or without nobiletin or M67N was used. For measuring post-confluent cell proliferation during first three days of differentiation, cells were switched to DM with different concentrations of nobiletin or M67N for 72 hours. At the end of each treatment, cells were washed with PBS three times. MTT ([…]) was added at concentration of 0.5 mg/mL to the cells. After a 3-hour incubation, the medium was decanted from each well and 150 μL DMSO was added to dissolve the formed formazan crystals on a shaker. When the crystal was completely dissolved, the absorbance at 570 nm was measured. Cell viability was interpreted as the percentage (%) of the readout of treated cells divided by that of control. Six repeats were carried out for each concentration.
# (§4) 3T3-L1 cells were seeded on 96-well plate at density of 1×10^4 cells/well and were incubated overnight for cell attachment. For measuring pre-confluent cell proliferation, full MEME with or without nobiletin or 6-OH-nobiletin, or 7-OH-nobiletin was used and cells were cultivated for 36 hours. For measuring post-confluent cell proliferation during the first three days of differentiation, cells were treated after 2 days of confluence. Specifically, cells were switched to differentiation medium (DM) with different concentrations of targeted compounds for 24 hours. At the end of each treatment, cells were washed with PBS three times followed by the addition of 100 μL MTT at concentration of 0.5 mg/mL. After 3 hours' incubation, the medium in each well were decanted while 150 μL DMSO was added to dissolve the formed formazan crystals at a shaker. When the crystals were completely dissolved, the absorbance of at 590 nm was measured. Cell viability was interpreted as the percentage (%) of the readout of treated cells divided by that of control. Five repeats were carried out for each concentration.
# [2] = system: differentiating 3T3-L1 adipocytes; assay: Oil Red O staining, lipid accumulation; format: cell-based, mouse; conditions: for intracellular lipid content: 15 μM; for intracellular lipid content / lipid formation / accumulation reduced to: relative to positive control; for inhibition at 50 µM: Mus musculus, 3T3-L1; for effect on intracellular lipid accumulation: various concentrations, Oil Red O at day 8
# Procedure: Two days after confluence, designated as day 0, adipocyte differentiation was initiated by culturing the cells for three days in differentiation medium (DM) which contained 10 μg/mL insulin, 0.5 mM IBMX, and 1 μM dexamethasone in complete culture medium. At day 3, the medium was replaced with DMEM, containing 10 μg/mL insulin. The medium was changed every two days until day 8. Cells were harvested on day 3 or day 8.
# as §2
# On day 8, cell layers were washed with 1×PBS and fixed with 10% paraformaldehyde (Sigma, St. Louis, MO, USA). After 15 minutes' fixation, the medium in each well was decanted and placed in a fume hood for complete dryness. Afterwards, cells were subjected to Oil Red O staining for 30 min, which was followed by immediate rinse in water. The intracellular lipid droplets were checked and pictures were captured on Olympus FSX100 Microscope. For the quantification of intracellular lipids, dyes were dissolved in 4% NP-40/isopropanol and the absorbance was measured at 520 nm by a microplate reader.
# PPARγ = assay: Immunoblotting, PPARγ expression; format: cell-based, mouse; conditions: early treatment, day 3
# Procedure: (§5) Primary antibodies which include AMPK-amAb, and Phospho-AMPKa(p-AMPKa) (Thr172) mAb, Acetyl-CoA Carboxylase (ACC) mAb, fatty acid synthase mAb RAs-related Nuclear protein (Ran) pAb, PPARc mAb, and C/EBPa pAb were all obtained from Cell Signaling Technology (Danvers, MA, USA). They were diluted by 1000 times for immunoblotting analyses.
# (§6) At day 3 or day 8, cells are harvested with scraper and homogenized with lysis buffer containing 0.5 mM PMSF, 1 mM mini-complete protease inhibitor cocktail (Sigma, St. Louis, MO, USA) and phosphatase inhibitor cocktail (Sigma, St. Louis, MO, USA). Lysates are syringed with 26 gauge ½ in. needles on ice and then applied for centrifugation at 14,000g for 15 min at 4° C. Protein concentration of cell lysates are determined by using Protein and Protein Broad Range (BR) Assay Kits (Thermofisher, Waltham, MA USA) according to the venture's protocol. Lysates are then stored at −80° C. or immediately are subjected to sodium dodecyl sulfate polyacrylamide gel electrophoresis (SDS-PAGE). For the SDS-PAGE, cell lysates are mixed with loading buffer and heated at 95° C. for 5 min prior to electrophoresis. […] Quantification is performed by measuring band intensity using ImageJ software and calculating the ratio of protein of interesting to RAN the internal loading control.
# C/EBPα = assay: Immunoblotting, C/EBPα expression; format: cell-based, mouse; conditions: early treatment, day 3
# Procedure: as §5, §6
# ACC = assay: Immunoblotting, ACC expression; format: cell-based, mouse; conditions: late phase treatment group, day 8
# Procedure: as §5, §6
# FAS = assay: Immunoblotting, FAS expression; format: cell-based, mouse; conditions: late phase treatment group, day 8
# Procedure: as §5, §6
# [3] = system: post-confluent 3T3-L1 cells; assay: MTT assay, post-confluent cells (mitotic clonal expansion); format: cell-based, mouse; conditions: 5 μM to 25 μM
# Procedure: as §3, §4
# [4] = as above; format: cell-based, mouse; conditions: mouse, post-confluent 3T3-L1 cells, percent of control, read-out: cell viability
# Procedure: as §3, §4
# AMPK = assay: Immunoblotting, AMPK and p-AMPK; format: cell-based, mouse; conditions: early and terminal differentiation processes
# Procedure: as §5, §6
# 3T3-L1 cells [5] = assay: Flow cytometry with PI staining, cell cycle distribution; format: cell-based, mouse
# Procedure: 3T3-L1 cells were seeded in six-well plates at a density of 3-5×10^5/well. After 2 days of confluency, cells were treated with DM in the absence or presence of several doses of nobiletin or […] for 24h. Both detached and adherent cells were harvested by trypsinization and washed with phosphate buffered saline (PBS). Cells were fixed with 70% ice cold ethanol and placed at 4° C. overnight. After removal of ethanol, cells were stained with propidium iodide containing RNAse ((Carlsbad, CA)) for 30 min in the dark. Fluorescence cells analysis was carried out by using an Accuri C6 flow cytometer. Data were processed using Flowjo_10 software. Each experiment was performed 3 times to reduce variance.
# [6] = Effect of pH of fermented media on extracted content of M2 and M3 (stability); format: physicochemical; conditions: for stability at alkaline condition: pH 8.0 and 10.0
# Procedure: Lastly, the fermented media was adjusted to pH 2.0, 5.0, 6.5, 7.0, 8.0 and 10.0 using HCl or NaOH. Subsequently, 3 extractions were conducted, and the sample was dried, weighed and analyzed using HPLC. The amount of extracted metabolites were compared and used to evaluate the effect of pH on extraction.
# 3T3-L1 cells [7] = conditions: 3T3-L1 preadipocytes; Hadrich & Sayadi, 2018; cited from earlier work
# [8] = system: post-confluent 3T3-L1 cells; conditions: 3T3-L1 preadipocytes; Hadrich & Sayadi, 2018; cited from earlier work
# 3T3-L1 preadipocytes = assay: MTT assay, pre-confluent cell proliferation; format: cell-based, mouse
# Procedure: as §1, §2, §3, §4
# [9] = Solubility of nobiletin in DMSO; format: physicochemical; conditions: organic solvent or mixture, read-out: maximal solubility in DMSO
# [10] = Water solubility of nobiletin / nobiletin-HMS dispersion; format: physicochemical; conditions: 25 °C
# Procedure: To check the water solubility of nobiletin in the nobiletin-HMS dispersion system, an excess of the media-milled nobiletin powder was dispersed into distilled water and agitated thoroughly for 24 hours at room temperature to reach full saturation.
# [11] = fermented media at pH 2.0 (first of four values, pH 2.0 to 7.0)
# [12] = fermented media at pH 5.0 (second of four values)
# [13] = fermented media at pH 6.5 (third of four values)
# [14] = fermented media at pH 7.0 (fourth of four values)
structure (smiles),measurement,setting,value
"COc1ccc(-c2cc(=O)c3c(OC)c(O)c(OC)c(OC)c3o2)cc1OC [6-OH-nobiletin, 6-hydroxy-5,7,8,3′,4′-pentamethoxyflavone]","viability at 36 h, 75 µM","[1]; 75 μM, percent of control",~82%
same,"viability at 36 h, 100 µM","[1]; 100 μM, percent of control",~65%
same,intracellular lipid content,[2],69.8±2.1%
same,decrease of lipid content,"[2]; 50 μM, early phase treatment (day 0 to day 3)",50%
same,lipid formation / accumulation reduced to,[2]; 50 μM,24.3±4.2%
same,inhibition at 50 µM,"[2]; 50 μM, late-phase treatment (day 4 to day 8), read-out: inhibition of lipid accumulation",72%
same,effect of early phase and late phase treatment on lipid accumulation,"[2]; early phase day 0-3, late phase day 4-8",suppressed the lipid accumulation in a dose-dependent matter
same,effect on intracellular lipid accumulation,[2],obvious suppressive effect on intracellular lipid accumulation
same,expression level of PPARγ,PPARγ,dose-dependently suppressed
same,production of C/EBPα,C/EBPα,greatly reduced
same,expression of ACC,ACC,significantly suppressed their expression
same,expression of FAS,FAS,significantly suppressed their expression
same,change of cell viability,[3],no significant difference
same,"viability at 24 h, 35 µM",[4]; 35 μM,83.1 ± 6.2%
same,"viability at 24 h, 50 µM",[4]; 50 μM,85.6 ± 5.3%
same,expression and phosphorylation of AMPK,AMPK,greatly enhanced
same,cells in S phase,3T3-L1 cells [5]; 5 μM,42%
same,preadipocytes in G2/M phase,3T3-L1 cells [5]; 5 μM,40%
same,population in G2/M phase,3T3-L1 cells [5]; 50 μM,20%
same,population in S phase,3T3-L1 cells [5]; 50 μM,60%
same,effect on cell cycle progression,3T3-L1 cells [5]; serial doses in differentiation medium,significantly delayed the progression of the cell cycle and increased the S population in a dose-dependent manner
same,total amount of extracted metabolite,[6]; [11],123.9 ± 4.6 µg/mL
same,total amount of extracted metabolite,[6]; [12],125.6 ± 3.2 µg/mL
same,total amount of extracted metabolite,[6]; [13],125.8 ± 1.9 µg/mL
same,total amount of extracted metabolite,[6]; [14],125.9 ± 1.2 µg/mL
same,content of extracted metabolite,[6]; pH 8.0,110 ± 1.7 µg/mL
same,stability at alkaline condition,[6],not stable at alkaline condition
same,content of extracted metabolite,[6]; pH 10.0,109 ± 2.6 µg/mL
O=c1cc(-c2ccc(O)cc2)oc2cc(O[C@@H]3O[C@H](CO)[C@@H](O)[C@H](O)[C@H]3O)cc(O)c12 [apigetrin],cell cycle arrest,3T3-L1 cells [7],arrest 3T3-L1 preadipocytes at G1 phase
same,decrease of cell viability,[8],50%
"COc1ccc(-c2cc(=O)c3c(OC)c(OC)c(O)c(OC)c3o2)cc1OC [7-OH-nobiletin, 7-hydroxy-5,6,8,3′,4′-pentamethoxyflavone]",effect on cell proliferation,3T3-L1 preadipocytes; even at 100 μM,did not present significant effect on cell proliferation
same,effect on intracellular lipid accumulation,[2],obvious suppressive effect on intracellular lipid accumulation
same,total amount of extracted metabolite,[6]; [11],46.5 ± 1.3 µg/mL
same,total amount of extracted metabolite,[6]; [12],47.5 ± 1.9 µg/mL
same,total amount of extracted metabolite,[6]; [13],47.6 ± 0.7 µg/mL
same,total amount of extracted metabolite,[6]; [14],46.9 ± 1.5 µg/mL
same,content of extracted metabolite,[6]; pH 8.0,39.2 ± 1.8 µg/mL
same,stability at alkaline condition,[6],not stable at alkaline condition
same,content of extracted metabolite,[6]; pH 10.0,11.7 ± 0.6 µg/mL
"COc1ccc(-c2cc(=O)c3c(OC)c(OC)c(OC)c(OC)c3o2)cc1OC [Nobiletin, 5,6,7,8,3′,4′-hexamethoxyflavone, reference compound]",solubility,[9],≤ 18000 µg/mL
same,"cytotoxicity at 36 h, 100 μM","[1]; 100 μM, read-out: cell viability reduced by",50%
same,inhibitory effect on the proliferation of preadipocytes,3T3-L1 preadipocytes; up to 75 μM,did not show any inhibitory effect; also recorded: did not demonstrated any inhibition effect
same,intracellular lipid content,[2],101.254±6.096%
same,lipid formation / accumulation reduced to,[2]; 50 μM,45.2±4.9%
same,inhibition at 50 µM,"[2]; 50 μM, read-out: reduction of lipid formation / inhibition of lipid accumulation",50%
same,effect on intracellular lipid accumulation,[2],decreased the intracellular lipid content in a dose-dependent way; also recorded: obvious suppressive effect on intracellular lipid accumulation
same,solubility,[10],9.2 µg/mL
